Measured values taken from patent publication US10450549B2, “Aryloxyphenoxypropionate tolerance in turfrgass species and use of AAD1 as a selectable marker” (Dow AgroSciences, LLC, priority 2004, dated 2019).
Values joined by “and” are separate entries in the source; they are usually repeats but may differ in a detail not shown here. Equal values may be shown once.

Legend:
AAD1 (v1) = target: T1, AAD1 (v1) (Sphingobium herbicidovorans, UniProt Q8KSC8); experiment: Colorimetric phenol detection assay of AAD1 (v1) activity (purified enzyme or E. coli extract); assay type: biochemical; details: for A510, AAD1 / A510, AAD1 (10x): substrate 1 mM; for A510, AAD1: 1 μg purified AAD1 (v1) per 0.16 ml assay; for A510, AAD1 (10x): 10 μg purified AAD1 (v1) per 0.16 ml assay; for rate of product formation relative to 2,4-D / A510: 1 mM; for rate of product formation relative to 2,4-D: 27 μg crude recombinant AAD1 (v1) per assay; for A510 / % 2,4-D: Table 8; for A510: 27 μg crude recombinant AAD1 (v1) extract from E. coli; for % 2,4-D: relative to 2,4-D, crude AAD1 (v1) extract
T1 construct: made in house; host or cells: E. coli BL-21 Star (DE3), plasmid pDAB3203
T1 sequence (Q8KSC8 whole entry): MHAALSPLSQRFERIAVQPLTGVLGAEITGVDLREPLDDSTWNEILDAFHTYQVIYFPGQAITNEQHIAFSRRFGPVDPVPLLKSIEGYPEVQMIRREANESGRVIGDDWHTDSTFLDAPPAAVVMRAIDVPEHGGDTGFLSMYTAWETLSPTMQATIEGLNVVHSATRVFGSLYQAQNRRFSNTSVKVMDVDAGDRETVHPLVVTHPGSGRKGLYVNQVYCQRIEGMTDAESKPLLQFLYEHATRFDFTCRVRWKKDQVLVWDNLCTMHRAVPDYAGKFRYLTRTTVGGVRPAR

[1] = tested on: T4 Arabidopsis homozygous for AAD1 (v3) (line AAD1.01.315.076); experiment: Foliar-applied auxinic herbicides on homozygous T4 AAD1 (v3) Arabidopsis, % injury 14 DAT; assay type: in vivo, Arabidopsis thaliana; details: AAD1.01.315.076.T4 homozygous AAD1 plants
Method: (§1) The ability of AAD1 (v3) to provide resistance to other aryloxyphenoxyalkanoate auxin herbicides in transgenic Arabidopsis was determined by foliar application of various substrates described in Example 6.8. T4 generation Arabidopsis seed, homozygous for AAD1 (v3) (line AAD1.01.315.076) was stratified, and sown into selection trays much like that of Arabidopsis (Example 6.4). A transformed-control line containing PAT and the insect resistance gene Cry1F was planted in a similar manner. Seedlings were transferred to individual 3-inch pots in the greenhouse. All plants were sprayed with the use of a track sprayer set at 187 L/ha. […] All applications were formulated in 200 mM Hepes buffer (pH 7.5). Each treatment was replicated 3-4 times. Plants were evaluated at 3 and 14 days after treatment and are averaged over two experiments.

[2] = tested on: transformed-control line containing PAT and Cry1F; experiment: Foliar-applied auxinic herbicides on control (PAT/Cry1F, wildtype) Arabidopsis, % injury 14 DAT; assay type: in vivo, Arabidopsis thaliana; details: PatCry1f - Control
Method: as §1

SMILES | A510, AAD1 (AAD1 (v1); Table 3, 15 min) | A510, AAD1 (10x) (AAD1 (v1); Table 3, 15 min) | A510, AAD1 (AAD1 (v1); Table 4) | A510, AAD1 (10x) (AAD1 (v1); Table 4) | also measured
CC(Oc1ccc(F)cc1Cl)C(=O)O (racemic) [(R,S)-2-chloro, 4-fluorophenoxy-proprionate] | 0.304 | 2.358 |  |  | 
CC(Oc1cc(F)c(Cl)c(N)c1Cl)C(=O)O (racemic) [(R,S)-3-amino, 5-F-dichlorprop] |  |  |  |  | rate of product formation relative to 2,4-D (AAD1 (v1)): 125%; A510 (AAD1 (v1)): 0.221; % 2,4-D (AAD1 (v1)): 125%
CC(Oc1ccc(Cl)c(N)c1Cl)C(=O)O (racemic) [(R,S)-3-aminodichlorpop] | 0.228 | 2.676 |  |  | fold better than 2,4-D as a substrate (AAD1 (v1); purified AAD1 (v1), Table 3 data, listed as 3-aminodichlorprop): ~7 fold and > 7 fold
CC(Oc1ccc(Oc2ncc(Cl)cc2Cl)cc1)C(=O)O (racemic) [(R,S)- chlorazifop] |  |  | 0.128 | 1.584 | 
CC(Oc1ccc(Oc2ncc(Cl)cc2F)cc1)C(=O)O (racemic) [(R,S)- clodinofop] |  |  | 0.295 | 1.98 | 
CC(Oc1ccc(Oc2nc3ccc(Cl)cc3s2)cc1)C(=O)O (racemic) [(R,S)- fenthiaprop] |  |  | 0.199 | 1.055 | 
CC(Oc1ccc(Oc2ccc(C(F)(F)F)cn2)cc1)C(=O)O (racemic) [(R,S)- fluazifop] |  |  | 0.427 | 2.17 | 
Oc1ccc(Cl)cc1Cl [2,4-DCP] |  |  |  |  | Ave % Injury 14DAT ([1]; 50 g ae/ha foliar): 0%; Ave % Injury 14DAT ([1]; 200 g ae/ha foliar): 0%; Ave % Injury 14DAT ([1]; 800 g ae/ha foliar): 0%; Ave % Injury 14DAT ([1]; 3200 g ae/ha foliar): 0%; Ave % Injury 14DAT ([2]; 50 g ae/ha foliar): 0%; Ave % Injury 14DAT ([2]; 200 g ae/ha foliar): 0%; Ave % Injury 14DAT ([2]; 800 g ae/ha foliar): 0%; Ave % Injury 14DAT ([2]; 3200 g ae/ha foliar): 0%
O=C(O)COc1cc(F)c(Cl)cc1Cl [5-F, 2,4-D] |  |  |  |  | rate of product formation relative to 2,4-D (AAD1 (v1)): 32%; A510 (AAD1 (v1)): 0.056; % 2,4-D (AAD1 (v1)): 32%
O=C(O)COc1ccc(Cl)c2cccnc12 [Cloquintocet] |  |  | 0 | 0.001 | activity of purified AAD1 (v1) on substrate (AAD1 (v1); 1 mM substrate, 1 or 10 μg enzyme): no activity
CC(Oc1ccc(Oc2ncc(C(F)(F)F)cc2Cl)cc1F)C(=O)O (centres unmarked) [compound 25646] |  |  | 0.144 | 1.69 | 
O=C(O)COc1ccc(F)cc1Cl [compound 124988] | 0.007 | 0.058 |  |  | 
O=C(O)CCCOc1ccc(Cl)cc1Cl [compound 178577] | 0.003 | 0.021 |  |  | 
CC(C)COC(=O)COc1ccc(Cl)cc1Cl [compound 190252] | 0.008 | 0.211 |  |  | 
CCC(Oc1ccc(Cl)cc1Cl)C(N)=O (centres unmarked) [compound 192132] | 0.064 | 0.204 |  |  | 
Nc1c(Cl)ccc(OCC(=O)O)c1Cl [compound 11263526] | 0.004 | 0.069 |  |  | 
O=S(=O)([O-])OCCOc1ccc(Cl)cc1Cl.[Na+] [sesone] | 0.02 | 0.177 |  |  | 
